Here are results for seven compounds from US5182284A, “Piperazine compounds, processes for preparation thereof and medical uses thereof” (Taiho Pharmaceutical Co., Ltd., priority 1990, dated 1993).

Assay [1] has as its target T1, 5-Lipoxygenase (Cavia porcellus, UniProt A0A286X958).
T1 construct: the polymorphonuclear leukocytes were collected and the cytosol fraction was obtained as an enzyme source; endogenous in cells; host or cells: guinea pig peritoneal polymorphonuclear leukocytes (casein-elicited), cytosol fraction
T1 sequence (A0A286X958 1-674): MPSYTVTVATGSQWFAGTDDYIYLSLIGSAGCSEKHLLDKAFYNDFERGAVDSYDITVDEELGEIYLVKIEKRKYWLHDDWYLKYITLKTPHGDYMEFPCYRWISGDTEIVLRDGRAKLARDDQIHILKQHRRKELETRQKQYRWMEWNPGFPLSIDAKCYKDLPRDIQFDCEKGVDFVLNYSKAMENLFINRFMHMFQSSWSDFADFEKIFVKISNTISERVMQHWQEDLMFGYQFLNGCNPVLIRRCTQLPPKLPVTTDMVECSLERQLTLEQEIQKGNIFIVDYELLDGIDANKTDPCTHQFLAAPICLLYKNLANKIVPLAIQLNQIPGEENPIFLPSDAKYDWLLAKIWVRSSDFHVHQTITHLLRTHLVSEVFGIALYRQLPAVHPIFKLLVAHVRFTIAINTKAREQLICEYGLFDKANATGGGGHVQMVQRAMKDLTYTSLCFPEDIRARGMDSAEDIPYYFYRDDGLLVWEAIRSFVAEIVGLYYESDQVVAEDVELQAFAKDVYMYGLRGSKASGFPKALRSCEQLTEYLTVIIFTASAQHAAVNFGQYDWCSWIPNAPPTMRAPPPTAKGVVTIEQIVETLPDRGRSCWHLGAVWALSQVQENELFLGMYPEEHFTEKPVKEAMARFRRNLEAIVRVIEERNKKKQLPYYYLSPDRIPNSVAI
Nature of the assay: 5-Lipoxygenase inhibitory effect. Conditions: cytosol fraction of guinea pig polymorphonuclear leukocytes, 14C-arachidonic acid, 5-hydroxyeicosatetraenoic acid formation. Format: biochemical. The method, then: 2) 5-Lipoxygenase inhibitory effect
The assay was carried out by the method described in Journal of Biological Chemistry 258, 5754-5758 (1983) Casein was injected into the abdominal cavity of a guinea pig, and the polymorphonuclear leukocytes were collected and the cytosol fraction was obtained as an enzyme source. ^14 C-Arachidonic acid was reacted with the enzyme and the test drugs at various concentrations over a predetermined period of time. The obtained 5-hydroxyeicosatetraenoic acid was separated by thin-layer chromatography and the radioactivity was determined. By the comparison with the radioactivity of the control, the IC50 values were calculated.

Assay [2] deals with Cyclooxygenase. Nature of the assay: Cyclooxygenase inhibitory effect. It counts as biochemical. Conditions: seminal vesicular gland microsomes, 14C-arachidonic acid, prostaglandin E2 formation. The method, then:
(1) Cyclooxygenase inhibitory effect
The assay was carried out by the method described in Biochem. Pharmacol. 25, 2479-2484 (1976).
^14 C-Arachidonic acid was reacted with seminal vesicular gland microsomes and the test drugs at various concentrations over a predetermined period of time and the obtained prostaglandin E2 was separated by thin-layer chromatography. The radioactivity was determined by liquid scintillation counter. The IC50 values were calculated by the comparison with the radioactivity of the control.

Assay [3] has as its system contraction of respiratory tract. Nature of the assay: Effect on allergic asthma (airway resistance after ovalbumin challenge in passively sensitized guinea pigs). Conditions: mean ± standard error, oral, 100 mg in 5 ml, 5 ml/kg, 2 hours before challenge, ovalbumin i.v., diphenhydramine, propranolol and indomethacin pretreatment. It counts as in vivo, guinea pig (Hartley). The method, then: 3. Effect on allergic asthma
To a guinea pig (Hartley, 350 to 400 g, male) was administered 0.5 ml/kg of a guinea pig anti-ovalbumin IgE serum for passive sensitization. Two days later, the guinea pig was anesthetized with pentobarbital (70 mg/kg) and a cannula and a catheter were each inserted into the trachea and a carotid artery, respectively. Further, the spontaneous respiration of the guinea pig was stopped with use of 0.5 mg/kg of pancuronium bromide and artificial respiration was conducted (100% oxygen at 1 kgf/cm^2, respirator: EVM-50A (manufactured by AIKA Co., Ltd.), predetermined flow rate of oxygen: 0.45 l/min, number of respiration: 40 times/min, time for inspiration: 0.25 sec/respiration). The measurement for contraction of respiratory tract was carried out by modified Konzett and Rossler method. A 100 mg quantity of the compound of the present invention was suspended in 5 ml of a 5% Tween-80-phosphate buffered physiological saline solution (pH 6.8). Two hours before the challenge, the test drug was orally administered in a volume of 5 ml/kg. The same quantity of the solvent alone was orally administered to a control group. Further, 2.5 mg/kg of diphenhydramine, 0.05 mg/kg of propranolol and 5 mg/kg of indomethacin were intravenously administered 5 minutes before the challenge. A 22.5 to 35 μg/kg quantity of ovalbumin was intravenously administered and the contraction of respiratory tract was measured as airway resistance with use of a pressure transducer. The maximum airway resistance was taken as 100%, and the change in the airway resistance caused a predetermined period of time after the challenge was shown as the ratio relative to the maximum airway resistance.

Each structure is given as a SMILES string.

As for `O=C(Cc1ccc(O)c(O)c1)OC(CN1CCN(CCCCCCCCCCO)CC1)c1ccccc1` (stereo not drawn) [Compound 8], the IC50 in assay [1] worked out at 320 nM; in assay [2], 9900 nM.
The like results for `O=C(/C=C/c1ccc(O)c(O)c1)OC(CN1CCN(CCCCCCCCCCO)CC1)c1ccc(Cl)cc1` (stereo not drawn) [Compound 15] were, in that order, 90 nM and 3400 nM.
For `CCCCCCCCCCN1CCN(CC(OC(=O)/C=C/c2ccc(O)c(O)c2)c2ccccc2)CC1` (stereo not drawn) [Compound 19], in that order: 80 nM and 4300 nM.
The like results for `CCCCCCCCCCN1CCN(C(=O)CNC(=O)/C=C/c2ccc(O)c(O)c2)CC1` [Compound 23] were, in that order, 40 nM and 4200 nM.
In the case of `CCCCCCCCCCN1CCN(C(=O)/C=C/c2ccc(O)c(O)c2)CC1` [Compound 35], the IC50 worked out at 40 nM in assay [1] and 8400 nM in assay [2].
The like results for `CCCCCCCCN1CCN(C(=O)/C=C/c2ccc(O)c(O)c2)CC1` [Compound 36] were, in that order, 120 nM and 2900 nM.
As to `CCCCCCCCCCN1CCN(C(=O)CNC(=O)/C=C/c2ccc(OC(=O)OCC)c(OC(=O)OCC)c2)CC1` [Compound 40], the “Airway resistance (ratio relative to the maximum airway resistance)” value is reported as 22.6 ± 3.7% in assay [3] (3 minutes after challenge, control 41.9 ± 7.0); 45.6 ± 11.0% in assay [3] (8 minutes after challenge, control 79.5 ± 5.4); 40.9 ± 11.3% in assay [3] (16 minutes after challenge, control 75.3 ± 5.8).
